Reference: patent publication US8912200B2, “Alkynyl substituted pyrimidinyl-pyrroles active as kinases inhibitors” (Nerviano Medical Sciences S.R.L., priority 2011, dated 2014)
pIC50: −log10 of the molar value.

How the values were obtained:
[1] = molecular target: T1, Lyn full length (Homo sapiens, UniProt P07948); experiment: Biochemical assay for inhibitors of Lyn (Src family) kinase activity; conditions: Lyn full length 1 nM, 25 μM ATP
T1 construct: The assay has been performed using Lyn full length
T1 sequence (P07948 whole entry): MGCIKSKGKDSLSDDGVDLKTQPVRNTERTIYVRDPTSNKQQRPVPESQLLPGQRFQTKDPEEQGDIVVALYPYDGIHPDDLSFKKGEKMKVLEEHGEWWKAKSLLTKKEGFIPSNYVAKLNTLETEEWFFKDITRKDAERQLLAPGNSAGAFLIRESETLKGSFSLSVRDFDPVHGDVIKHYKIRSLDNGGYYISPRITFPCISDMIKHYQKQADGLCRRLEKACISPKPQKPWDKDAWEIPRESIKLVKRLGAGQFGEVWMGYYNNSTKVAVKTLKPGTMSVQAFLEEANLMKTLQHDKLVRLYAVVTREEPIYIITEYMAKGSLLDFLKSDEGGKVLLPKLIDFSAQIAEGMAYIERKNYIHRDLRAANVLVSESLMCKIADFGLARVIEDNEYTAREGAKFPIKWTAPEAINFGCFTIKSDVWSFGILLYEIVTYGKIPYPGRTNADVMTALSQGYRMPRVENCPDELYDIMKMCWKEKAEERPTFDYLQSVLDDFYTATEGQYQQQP
Text: Biochemical Assay for Inhibitors of Lck and Lyn (Src Family) Kinases Activity
(§1) Specific Lck and Lyn substrates are trans-phosphorylated by Lck and Lyn kinases in the presence of ATP traced with 33P-γ-ATP. At the end of the phosphorylation reaction, the unreacted ATP, cold and radioactive, is captured by an excess of dowex ion exchange resin that eventually settles by gravity to the bottom of the reaction plate. The supernatant is subsequently withdrawn and transferred into a counting plate that is then evaluated by β-counting.
Lyn Specific Assay Conditions
The assay has been performed using Lyn full length (accession number P07948 of UniProtKB/Swiss-Prot database).
Kinase buffer was composed of 50 mM HEPES pH 7.5 containing 3 mM MgCl2, 1 mM DTT, 3 μM Na3VO4, and 0.2 mg/mL BSA.
The Lyn kinase assay was run with a final enzyme concentration of 1 nM, in the presence of 25 μM ATP, 1.5 nM 33P-γ-ATP and 250 μM of substrate ABI 1 (Aminoacid sequence: EAIYAAPFAKKK—SEQ ID NO: 3). The peptidic substrate was purchased from American Peptide Company (Sunnyvale, Calif.).
(§2) For IC50 determination, test compounds are received as a 1 mM solution in 100% DMSO, distributed into 96 well plates: compounds are then plated into the first column of a microtiter plate (A1 to G1), 100 μL/well.
(§3) An automated station for serial dilutions (Biomek FX, Beckman) is used for producing 1:3 dilutions in 100% DMSO, from line A1 to A10, and for all the compounds in the column. Moreover, 4-5 copies of daughter plates are prepared by reformatting 5 μL of this first set of 100% DMSO dilution plates into 384 deep well-plates: one of these plates with the serial dilutions of test compounds will be thawed the day of the experiments, reconstituted at a 3× concentration with water and used in the IC50 determination assays. In a standard experiment, the highest concentration (3×) of all compounds is 30 μM, while the lowest one is 1.5 nM. Each 384 well-plate will contain at least one curve of the standard inhibitor staurosporine and reference wells (total enzyme activity vs. no enzymatic activity) for the Z′ and signal to background evaluation.
(§4) 384-well plates, V bottom (test plates) are prepared with 5 μL of the compound dilution (3×) and then placed onto a PlateTrak 12 robotized station (Perkin Elmer; the robot has one 384-tip pipetting head for starting the assay plus one 96-tip head for dispensing the resin) together with one reservoir for the Enzyme mix (3×) and one for the ATP mix (3×). At the start of the run, the robot aspirates 5 μL of ATP mix, makes an air gap inside the tips (3 μl) and aspirates 5 μL of JAK2 mix. The following dispensation into the plates plus 3 cycles of mixing, done by the robot itself, starts the kinase reaction. At this point, the correct concentrations are restored for all the reagents. The robot incubates the plates for 60 minutes at room temperature, and then stops the reaction by pipetting 60 μL of dowex resin suspension into the reaction mix. In order to avoid tip clogging, wide bore tips are used to dispense the resin suspension. Three cycles of mixing are done immediately after the addition of the resin. Another mixing cycle is performed after all the plates are stopped, this time using normal tips: the plates are then allowed to rest for about one hour in order to allow resin sedimentation. At this point, 27 μL of the supernatant are transferred into 384-Optiplates (Perkin-Elmer), with 50 μL of Microscint 40 (Perkin-Elmer); after 5 min of orbital shaking the plates are read on a Perkin-Elmer Top Count radioactivity counter.
Data are analyzed by an internally customized version of the SW package “Assay Explorer” that provides sigmoidal fitting of the ten-dilutions curves for IC50 determination in the secondary assays/hit confirmation routines.

[2] = molecular target: T2, JAK2 kinase domain (Homo sapiens, UniProt O60674); experiment: Biochemical assay for inhibitors of JAK kinase activity (JAK2, 33P-γ-ATP/dowex resin); conditions: JAK2 kinase domain 1 nM, 60 μM ATP
T2 construct: commercially available JAK2 kinase domain; purchased Invitrogen, Eugene, Oreg
T2 sequence (O60674 849-1124 limits assumed): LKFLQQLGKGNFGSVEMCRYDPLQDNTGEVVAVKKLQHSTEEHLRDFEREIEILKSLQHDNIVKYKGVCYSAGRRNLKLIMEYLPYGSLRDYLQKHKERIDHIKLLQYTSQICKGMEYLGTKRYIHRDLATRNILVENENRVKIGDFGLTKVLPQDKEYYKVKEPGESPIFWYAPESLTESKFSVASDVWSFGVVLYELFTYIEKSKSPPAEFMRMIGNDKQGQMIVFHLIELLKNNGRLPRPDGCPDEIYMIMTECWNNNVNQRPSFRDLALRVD
Text: Biochemical Assay for Inhibitors of JAK Kinase Activity
as §1, with “Specific JAK2, JAK1 or JAK3 peptide” for “Specific Lck and Lyn”, “by JAK” for “by Lck and Lyn”
500 g of wet resin (SIGMA, custom prepared resin DOWEX 1×8 200-400 mesh, 2.5 Kg) are weighed out and diluted 2 to 1 in 150 mM sodium formate, pH 3.00. The resin is allowed to settle down overnight and then the supernatant is discarded. After three washes as above over a couple of days, the resin is allowed to settle and two volumes (with respect to the resin volume) of 150 mM sodium formate buffer are added.
Kinase buffer was composed of 50 mM HEPES pH 7.5 containing 10 mM MgCl2, 2.5 mM DTT, 10 μM Na3VO4 and 0.2 mg/mL BSA.
JAK2 Specific Assay Conditions
The JAK2 kinase assay was run with a final enzyme concentration of 1 nM, in the presence of 60 μM ATP, 3 nM 33P-γ-ATP and 64 μM of substrate BioDBn*306 (Aminoacid sequence: LPLDKDYYVVREPGQ—SEQ ID NO: 1). The peptidic substrate was purchased from American Peptide Company (Sunnyvale, Calif.).
as §2, §3
as §4, with “counter. […]” for “counter.”

[3] = tested on: JAK2 dependent human megakaryoblastic leukemia cell line SET-2; experiment: Cell proliferation assay (CellTiter-Glo, 72 hours); format: cell-based; conditions: Homo sapiens, SET-2 cells
Description: The JAK2 dependent human megakaryoblastic leukemia cell line SET-2 (DSMZ, Braunschweig GERMANY) and the JAK2 independent human chronic myelogenous leukaemia cell line K562 (ECACC, Wiltshire, UK) were cultured in RPMI-1640 medium-Glutamax (Gibco BRL, Gaithesburg, Md., USA), supplemented with 10% fetal bovine serum (FBS) at 37° C. and 5% CO2.
Cell Proliferation Assay:
Approximately 5×10^3 cells were plated into 384 microtiter plate wells in 50 μL of growth media with different concentrations of inhibitors. The cells were incubated at 37° C. and 5% CO2 for 72 hours, then the plates were processed using CellTiter-Glo assay (Promega, Madison, Wis., USA) following the manufacturer's instruction. Briefly 25 μL/well reagent solution is added to each well and after 5 minutes shaking the micro-plates are read by Envision luminometer (PerkinElmer, Waltham, Mass., USA).
Data are analyzed by Symix Assay Explorer software (Symix Technologies Inc.) that provides sigmoidal fitting algorithm of the 8 points dilutions curves for IC50 determination.

Which results are given for `Cc1ccc(Cl)cc1-c1[nH]c(-c2nc(N)ncc2C#Cc2ccccc2N)cc1C(N)=O` [compound 6, 5-{2-Amino-5-[(2-aminophenyl)ethynyl]pyrimidin-4-yl}-2-(5-chloro-2-methylphenyl)-1H-pyrrole-3-carboxamide]?
pIC50 [1]: 8.52; pIC50 [2]: 9.00; pIC50 [3]: 6.62

What does the source list for `Cc1ccc(Cl)cc1-c1[nH]c(-c2nc(N)ncc2C#Cc2ccc(N)cc2)cc1C(N)=O` [compound 8, 5-{2-Amino-5-[(4-aminophenyl)ethynyl]pyrimidin-4-yl}-2-(5-chloro-2-methylphenyl)-1H-pyrrole-3-carboxamide]?
pIC50 [1]: 8.70; pIC50 [2]: 9.00; pIC50 [3]: 6.85

What does the source list for `Cc1ccc(Cl)cc1-c1[nH]c(-c2nc(N)ncc2C#Cc2ccc(CN3CCCC3)cc2)cc1C(N)=O` [compound 66, 5-(2-Amino-5-{[4-(pyrrolidin-1-ylmethyl)phenyl]ethynyl}pyrimidin-4-yl)-2-(5-chloro-2-methylphenyl)-1H-pyrrole-3-carboxamide]?
pIC50 [1]: 9.00; pIC50 [2]: 9.00; pIC50 [3]: 6.72

What does the source list for `Cc1ccc(Cl)cc1-c1[nH]c(-c2nc(N)ncc2C#Cc2ccc(CN3CCCCC3)cc2)cc1C(N)=O` [compound 67, 5-(2-Amino-5-{[4-(piperidin-1-ylmethyl)phenyl]ethynyl}pyrimidin-4-yl)-2-(5-chloro-2-methylphenyl)-1H-pyrrole-3-carboxamide]?
pIC50 [1]: 9.00; pIC50 [2]: 9.00; pIC50 [3]: 6.72

`Cc1ccc(Cl)cc1-c1[nH]c(-c2ccnc(N)n2)c(C#Cc2cccc(OC3CCN(C)CC3)c2)c1C(N)=O` [compound 91, 5-(2-Aminopyrimidin-4-yl)-2-(5-chloro-2-methylphenyl)-4-({3-[(1-methylpiperidin-4-yl)oxy]phenyl}ethynyl)-1H-pyrrole-3-carboxamide] was tested. Which pIC50 [1] did it give?
Its pIC50 is 6.94.

And the pIC50 [2]?
The pIC50 was 8.30.

What about the pIC50 [3] of the same compound?
The pIC50 was 6.59.

How did the pIC50 [1] turn out when `Cc1ccc(Cl)cc1-c1[nH]c(-c2nc(N)ncc2C#Cc2cc(N3CCN(C)CC3)ccc2F)cc1C(N)=O` [compound 49, 5-(2-Amino-5-{[2-fluoro-5-(4-methylpiperazin-1-yl)phenyl]ethynyl}pyrimidin-4-yl)-2-(5-chloro-2-methylphenyl)-1H-pyrrole-3-carboxamide] was run?
Its pIC50 is 7.70.

What about the pIC50 [2] of the same compound?
The pIC50 was 8.30.

What about the pIC50 [3] of the same compound?
The pIC50 was 6.85.

With `COc1ccc(N2CCN(C)CC2)cc1C#Cc1cnc(N)nc1-c1cc(C(N)=O)c(-c2cc(Cl)ccc2C)[nH]1` [compound 34, 5-(2-Amino-5-{[2-methoxy-5-(4-methylpiperazin-1-yl)phenyl]ethynyl}pyrimidin-4-yl)-2-(5-chloro-2-methylphenyl)-1H-pyrrole-3-carboxamide] as the compound, how does the pIC50 [1] read?
The pIC50 was 7.70.

What about the pIC50 [2] of the same compound?
Its pIC50 is 8.30.

What about the pIC50 [3] of the same compound?
Its pIC50 is 6.17.

Which results are given for `Cc1ccc(Cl)cc1-c1[nH]c(-c2ccnc(N)n2)c(C#Cc2cccc(CN3CCN(C)CC3)c2)c1C(N)=O` [compound 81, 5-(2-Aminopyrimidin-4-yl)-2-(5-chloro-2-methylphenyl)-4-({3-[(4-methylpiperazin-1-yl)methyl]phenyl}ethynyl)-1H-pyrrole-3-carboxamide]?
pIC50 [1]: 8.52; pIC50 [2]: 8.22; pIC50 [3]: 6.27

`Cc1ccc(Cl)cc1-c1[nH]c(-c2nc(N)ncc2C#Cc2ccc(OC3CCN(C)CC3)cc2)cc1C(N)=O` [compound 48, 5-[2-Amino-5-({4-[(1-methylpiperidin-4-yl)oxy]phenyl}ethynyl)pyrimidin-4-yl]-2-(5-chloro-2-methylphenyl)-1H-pyrrole-3-carboxamide] was tested. Which pIC50 [1] did it give?
Its pIC50 is 8.10.

And the pIC50 [2]?
The pIC50 was 8.22.

What about the pIC50 [3] of the same compound?
The pIC50 was 6.80.

With `Cc1ccc(Cl)cc1-c1[nH]c(-c2ccnc(N)n2)c(C#Cc2ccc(N3CCN(C)CC3)cc2)c1C(N)=O` [compound 83, 5-(2-Aminopyrimidin-4-yl)-2-(5-chloro-2-methylphenyl)-4-{[4-(4-methylpiperazin-1-yl)phenyl]ethynyl}-1H-pyrrole-3-carboxamide] as the compound, how does the pIC50 [1] read?
Its pIC50 is 8.05.

And the pIC50 [2]?
The pIC50 was 8.10.

And the pIC50 [3]?
The pIC50 was 6.29.

Which results are given for `Cc1ccc(Cl)cc1-c1[nH]c(-c2nc(N)ncc2C#Cc2cccc(OC3CCN(C)CC3)c2)cc1C(N)=O` [compound 32, 5-[2-Amino-5-({3-[(1-methylpiperidin-4-yl)oxy]phenyl}ethynyl)pyrimidin-4-yl]-2-(5-chloro-2-methylphenyl)-1H-pyrrole-3-carboxamide]?
pIC50 [1]: 8.22; pIC50 [2]: 8.40; pIC50 [3]: 6.80

What does the source list for `COc1cc(N2CCN(C)CC2)ccc1C#Cc1c(-c2ccnc(N)n2)[nH]c(-c2cc(Cl)ccc2C)c1C(N)=O` [compound 89, 5-(2-Aminopyrimidin-4-yl)-2-(5-chloro-2-methylphenyl)-4-{[2-methoxy-4-(4-methylpiperazin-1-yl)phenyl]ethynyl}-1H-pyrrole-3-carboxamide]?
pIC50 [1]: 8.40; pIC50 [2]: 8.22; pIC50 [3]: 6.59

How did the pIC50 [1] turn out when `Cc1ccc(Cl)cc1-c1[nH]c(-c2ccnc(N)n2)c(C#Cc2ccccc2NCCN(C)C)c1C(N)=O` [compound 87, 5-(2-Aminopyrimidin-4-yl)-2-(5-chloro-2-methylphenyl)-4-[(2-{[2-(dimethylamino)ethyl]amino}phenyl)ethynyl]-1H-pyrrole-3-carboxamide] was run?
The pIC50 was 7.62.

What about the pIC50 [2] of the same compound?
Its pIC50 is 7.89.

And the pIC50 [3]?
Its pIC50 is 6.54.
